Patent publication US8138168B1 (Takeda Pharmaceutical Company Limited, priority 2007, dated 2012)
Like-named read-outs stand apart in the source and are kept apart here.

Target: T1, Recombinant human renin (Homo sapiens, UniProt P00797)
T1 construct: isolate the active form (residues 67-406); made in house; host or cells: FreeStyle 293-F cells (transient expression of pcDNA3.1(+)/hREN)
T1 sequence (P00797 67-406): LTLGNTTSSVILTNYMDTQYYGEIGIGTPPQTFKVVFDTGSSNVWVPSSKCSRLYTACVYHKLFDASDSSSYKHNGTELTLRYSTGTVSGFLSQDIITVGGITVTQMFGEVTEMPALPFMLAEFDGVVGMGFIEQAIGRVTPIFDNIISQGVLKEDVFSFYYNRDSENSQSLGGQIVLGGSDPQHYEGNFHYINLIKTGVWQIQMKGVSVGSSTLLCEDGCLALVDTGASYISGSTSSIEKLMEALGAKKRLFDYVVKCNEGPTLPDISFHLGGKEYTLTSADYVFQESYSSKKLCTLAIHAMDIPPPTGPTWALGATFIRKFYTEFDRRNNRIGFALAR
Test: In vitro enzymatic activity assay of renin inhibitors (fluorogenic peptide substrate)
Type: biochemical
In short: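 Recombinant human renin (3 nM final) pre-incubated 10 min at 37 °C with compounds in pH 7.4 Hepes/EDTA/DTT/0.1 mg/mL BSA/Brij35 buffer (optionally plus 2% BSA), 5% DMSO final; fluorogenic QXL520/HiLyteFluo488 peptide substrate added.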

[1] = read-out: IC50 of Exemplified Compounds Against Renin

Row | Structure (SMILES) | IC50 [1] | IC50
1 | COCCCn1c([C@@H]2CCCN(C(=O)C[C@H](N)CNS(=O)(=O)c3ccccc3)C2)nc2ccccc21 [Compound 316, N-((S)-2-amino-4-((R)-3-(1-(3-methoxypropyl)-1H-benzo[d]imidazol-2-yl)piperidin-1-yl)-4-oxobutyl)benzenesulfonamide] | 0.1 to 1 µM | –
2 | COCCCn1c([C@@H]2CCCN(C(=O)[C@@H]3CN(C(=O)Oc4ccc(Cl)cc4)C[C@H]3N)C2)nc2ccccc21 [Compound 407, (3S,4R)-4-chlorophenyl 3-amino-4-((R)-3-(1-(3-methoxypropyl)-1H-benzo[d]imidazol-2-yl)piperidine-1-carbonyl)pyrrolidine-1-carboxylate] | – | > 1 µM
3 | COCCCn1c([C@@H]2CCCN(C(=O)C[C@H](N)Cc3ccc(-c4ccc(O)nc4)cc3)C2)nc2c(F)cccc21 [Compound 451, (R)-3-amino-1-((R)-3-(4-fluoro-1-(3-methoxypropyl)-1H-benzo[d]imidazol-2-yl)piperidin-1-yl)-4-(4-(6-hydroxypyridin-3-yl)phenyl)butan-1-one] | < 0.1 µM | –
4 | N[C@@H](CC(=O)N1CCC[C@@H](c2nc3ccccc3[nH]2)C1)Cc1ccc(-c2ccccc2)cc1 [Compound 71, (R)-1-((R)-3-(1H-benzo[d]imidazol-2-yl)piperidin-1-yl)-3-amino-4-(biphenyl-4-yl)butan-1-one] | > 1 µM | –
5 | N[C@@H](CC(=O)N1CCCC(c2nc3ccccc3[nH]2)C1)Cc1ccc([N+](=O)[O-])cc1 (stereo partly drawn) [Compound 39, (3R)-1-(3-(1H-benzo[d]imidazol-2-yl)piperidin-1-yl)-3-amino-4-(4-nitrophenyl)butan-1-one] | > 1 µM | –
6 | CC(=O)NCCn1c([C@@H]2CCCN(C(=O)C[C@H](N)Cc3ccc(-c4ccc(N5CCNC5=O)cc4)cc3)C2)nc2ccccc21 [Compound 462, N-(2-(2-((R)-1-((R)-3-amino-4-(4′-(2-oxoimidazolidin-l-yl)biphenyl-4-yl)butanoyl)piperidin-3-yl)-1H-benzo[d]imidazol-1-yl)ethyl)acetamide] | 0.1 to 1 µM | –
7 | COCCCn1c([C@@H]2CCCN(C(=O)[C@@H]3CN(C(=O)C4CCCCC4)C[C@H]3N)C2)nc2ccccc21 [Compound 405, ((3R,4S)-4-amino-1-(cyclohexanecarbonyl)pyrrolidin-3-yl)((R)-3-(1-(3-methoxypropyl)-1H-benzo[d]imidazol-2-yl)piperidin-1-yl)methanone] | > 1 µM | –
8 | COCCCn1c([C@@H]2CCCN(C(=O)C[C@H](N)Cc3ccc(-c4ccc(C(=O)NCCO)cc4)cc3)C2)nc2ccccc21 [Compound 182, 4′-((R)-2-amino-4-((R)-3-(1-(3-methoxypropyl)-1H-benzo[d]imidazol-2-yl)piperidin-1-yl)-4-oxobutyl)-N-(2-hydroxyethyl)biphenyl-4-carboxamide] | < 0.1 µM | –
9 | COCCCn1c([C@@H]2CCCN(C(=O)C[C@H](N)CNC(=O)c3cccc(F)c3)C2)nc2ccccc21 [Compound 318, N-((S)-2-amino-4-((R)-3-(1-(3-methoxypropyl)-1H-benzo[d]imidazol-2-yl)piperidin-1-yl)-4-oxobutyl)-3-fluorobenzamide] | 0.1 to 1 µM | –
10 | COCCCn1c([C@@H]2CCCN(C(=O)[C@@H]3CN(S(=O)(=O)c4ccccc4)C[C@H]3N)C2)nc2ccccc21 [Compound 384, ((3R,4S)-4-amino-1-(phenylsulfonyl)pyrrolidin-3-yl)((R)-3-(1-(3-methoxypropyl)-1H-benzo[d]imidazol-2-yl)piperidin-1-yl)methanone] | > 1 µM | –
11 | COCCCn1c([C@@H]2CCCN(C(=O)[C@@H]3CN(S(=O)(=O)c4c(Cl)cccc4Cl)C[C@H]3N)C2)nc2ccccc21 [Compound 347, ((3R,4S)-4-amino-1-(2,6-dichlorophenylsulfonyl)pyrrolidin-3-yl)((R)-3-(1-(3-methoxypropyl)-1H-benzo[d]imidazol-2-yl)piperidin-1-yl)methanone] | 0.1 to 1 µM | –
12 | COCCCn1c([C@@H]2CCCN(C(=O)C[C@H](N)Cc3ccc(-c4csc(C(C)C)n4)cc3)C2)nc2ccccc21 [Compound 202, (R)-3-amino-4-(4-(2-isopropylthiazol-4-yl)phenyl)-1-((R)-3-(1-(3-methoxypropyl)-1H-benzo[d]imidazol-2-yl)piperidin-1-yl)butan-1-one] | < 0.1 µM | –
13 | COCCCn1c([C@@H]2CCCN(C(=O)C[C@H](N)Cc3ccc4ccccc4c3)C2)nc2ccc(F)cc21 [Compound 95, (R)-3-amino-1((R)-3-(6-fluoro-1-(3-methoxypropyl)-1H-benzo[d]imidazol-2-yl)piperidin-1-yl)-4-(naphthalen-2-yl)butan-1-one] | 0.1 to 1 µM | –
14 | COCCCn1c([C@@H]2CCCN(C(=O)C[C@H](N)Cc3ccc(-c4ccc5oc(=O)[nH]c5c4)cc3)C2)nc2c(F)cccc21 [Compound 460, 5-(4-((R)-2-amino-4-((R)-3-(4-fluoro-1-(3-methoxypropyl)-1H-benzo[d]imidazol-2-yl)piperidin-1-yl)-4-oxobutyl)phenyl)benzo[d]oxazol-2(3H)-one] | < 0.1 µM | –
15 | COCCCn1c([C@@H]2CCCN(C(=O)[C@@H]3CN(C(=O)CC4CCCCC4)C[C@H]3N)C2)nc2ccccc21 [Compound 397, l-((3S,4R)-3-amino-4-((R)-3-(1-(3-methoxypropyl)-1H-benzo[d]imidazol-2-yl)piperidine-1-carbonyl)pyrrolidin-1-yl)-2-cyclohexylethanone] | > 1 µM | –
16 | CNC(=O)CCn1c([C@@H]2CCCN(C(=O)C[C@H](N)Cc3ccc(-c4ccc5c(c4)CCO5)cc3)C2)nc2c(C)cccc21 [Compound 501, 3-(2-((R)-1-((R)-3-amino-4-(4-(2,3-dihydrobenzofuran-5-yl)phenyl)butanoyl)piperidin-3-yl)-4-methyl-1H-benzo[d]imidazol-1-yl)-N-methylpropanamide] | 0.1 to 1 µM | –
17 | COCCCn1c([C@@H]2CCCN(C(=O)[C@@H]3CN(S(=O)(=O)c4c(F)cccc4F)C[C@H]3N)C2)nc2ccccc21 [Compound 426, ((3R,4S)-4-amino-1-(2,6-difluorophenylsulfonyl)pyrrolidin-3-yl)((R)-3-(1-(3-methoxypropyl)-1H-benzo[d]imidazol-2-yl)piperidin-1-yl)methanone] | 0.1 to 1 µM | –

Second part, led by results:

Row | IC50 [1] | Structure (SMILES) | IC50
18 | < 0.1 µM | COCCCn1c([C@@H]2CCCN(C(=O)C[C@H](N)Cc3ccc(-c4cccnc4)cc3)C2)nc2ccccc21 [Compound 125, (R)-3-amino-1-((R)-3-(1-(3-methoxypropyl)-1H-benzo[d]imidazol-2-yl)piperidin-1-yl)-4-(4-(pyridin-3-yl)phenyl)butan-1-one] | –
19 | < 0.1 µM | COCCCn1c([C@@H]2CCCN(C(=O)C[C@H](N)Cc3ccc(-c4csc(OC)n4)cc3)C2)nc2ccccc21 [Compound 201, (R)-3-amino-1-((R)-3-(1-(3-methoxypropyl)-1H-benzo[d]imidazol-2-yl)piperidin-1-yl)-4-(4-(2-methoxythiazol-4-yl)phenyl)butan-1-one] | –
20 | > 1 µM | COCCCn1c([C@@H]2CCCN(C(=O)[C@@H]3CN(S(=O)(=O)c4cc(C)ccc4C#N)C[C@H]3N)C2)nc2ccccc21 [Compound 403, 2-((3S,4R)-3-amino-4-((R)-3-(1-(3-methoxypropyl)-1H-benzo[d]imidazol-2-yl)piperidine-1-carbonyl)pyrrolidin-1-ylsulfonyl)-4-methylbenzonitrile] | –
21 | 0.1 to 1 µM | COCCCn1c([C@@H]2CCCN(C(=O)C[C@H](N)Cc3ccc4ccccc4c3)C2)nc2cc(F)ccc21 [Compound 96, (R)-3-amino-1((R)-3-(5-fluoro-1-(3-methoxypropyl)-1H-benzo[d]imidazol-2-yl)piperidin-1-yl)-4-(naphthalen-2-yl)butan-1-one] | –
22 | 0.1 to 1 µM | COCCCn1c([C@@H]2CCCN(C(=O)C[C@H](N)CNC(=O)c3cccc(C(=O)OC)c3)C2)nc2ccccc21 [Compound 282, methyl 3-((S)-2-amino-4-((R)-3-(1-(3-methoxypropyl)-1H-benzo[d]imidazol-2-yl)piperidin-1-yl)-4-oxobutylcarbamoyl)benzoate] | –
23 | 0.1 to 1 µM | COCCCn1c([C@@H]2CCCN(C(=O)C[C@H](N)CNC(=O)Nc3ccc(Cl)cc3)C2)nc2ccccc21 [Compound 283, 1-((S)-2-amino-4-((R)-3-(1-(3-methoxypropyl)-1H-benzo[d]imidazol-2-yl)piperidin-1-yl)-4-oxobutyl)-3-(4-chlorophenyl)urea] | –
24 | < 0.1 µM | COCCCn1c([C@@H]2CCCN(C(=O)C[C@H](N)Cc3ccc(-c4ccc(N5CCNC5=O)cc4)cc3)C2)nc2ccccc21 [Compound 436, 1-(4′-((R)-2-amino-4-((R)-3-(1-(3-methoxypropyl)-1H-benzo[d]imidazol-2-yl)piperidin-1-yl)-4-oxobutyl)biphenyl-4-yl)imidazolidin-2-one] | –
25 | 0.1 to 1 µM | COCCCn1c([C@@H]2CCCN(C(=O)C[C@H](N)Cc3ccc4ccccc4c3)C2)nc2ccc(OC)cc21 [Compound 110, (R)-3-amino-1((R)-3-(6-methoxy-1-(3-methoxypropyl)-1H-benzo[d]imidazol-2-yl)piperidin-1-yl)-4-(naphthalen-2-yl)butan-1-one] | –
26 | < 0.1 µM | COCCCn1c([C@@H]2CCCN(C(=O)C[C@H](N)Cc3ccc(-c4ccc(C(=O)NC(C)(C)CO)cc4)cc3)C2)nc2ccccc21 [Compound 183, 4′-((R)-2-amino-4-((R)-3-(1-(3-methoxypropyl)-1H-benzo[d]imidazol-2-yl)piperidin-1-yl)-4-oxobutyl)-N-(1-hydroxy-2-methylpropan-2-yl)biphenyl-4-carboxamide] | –
